In BigSolDB 2.1:

NC(=O)Nc1ccccc1
solubility (mole fraction)
Details | 283.15 K | 288.15 K | 293.15 K | 298.15 K | 303.15 K | 308.15 K | 313.15 K | 318.15 K | 323.15 K
in 1,2-dichloroethane | 0.000433 | 0.000528 | 0.000706 | 0.000952 | 0.0012 | 0.00151 | 0.002 | 0.00257 | 0.00315
in 1,4-dioxane | – | 0.0128 | 0.0152 | 0.0183 | 0.022 | 0.0276 | 0.0348 | 0.0433 | 0.0525
in DMF | 0.205 | 0.212 | 0.22 | 0.229 | 0.24 | 0.253 | 0.266 | 0.282 | 0.3
in DMSO | – | – | 0.192 | 0.199 | 0.207 | 0.217 | 0.229 | 0.244 | 0.262
in NMP | 0.0457 | 0.0517 | 0.0596 | 0.0686 | 0.0787 | 0.0898 | 0.101 | 0.115 | 0.13
in acetonitrile | 0.00622 | 0.00731 | 0.00867 | 0.0106 | 0.0135 | 0.0177 | 0.0221 | 0.0264 | 0.0318
in ethanol | 0.0236 | 0.0272 | 0.0322 | 0.0383 | 0.0459 | 0.0525 | 0.0612 | 0.072 | 0.082
in ethyl acetate | 0.0147 | 0.0176 | 0.0209 | 0.0257 | 0.0309 | 0.0384 | 0.0461 | 0.0549 | 0.0643
in ethylene glycol | 0.0338 | 0.039 | 0.0448 | 0.0517 | 0.0595 | 0.0681 | 0.0774 | 0.0882 | 0.101
in isopropanol | 0.00903 | 0.0108 | 0.0132 | 0.0164 | 0.0198 | 0.0253 | 0.0321 | 0.0392 | 0.0472
in methanol | 0.0265 | 0.0305 | 0.036 | 0.0421 | 0.0495 | 0.0578 | 0.0672 | 0.0774 | 0.0888
in n-propanol | 0.02 | 0.0235 | 0.0281 | 0.0334 | 0.0394 | 0.0458 | 0.0539 | 0.0629 | 0.0723
in water | 0.000409 | 0.000513 | 0.000649 | 0.000828 | 0.00102 | 0.00124 | 0.0015 | 0.0018 | 0.00208
